From patent US11939318B2, “LPA receptor antagonists and uses thereof” (Gilead Sciences, Inc., priority 2021, dated 2024) come the findings set out here.

The test has as its target T1, human LPAR1 (Homo sapiens, UniProt Q92633).
T1 construct: host or cells: CHO-K1
Nature of the test: LPAR1 intracellular calcium mobilization assay (antagonist mode, CHO-K1 EDG2 cells, FLIPR). The class given is cell-based. Conditions: antagonist activity; CHO-K1 EDG2 cells expressing human LPAR1; 60 min pre-incubation at 37° C., then LPA 18:2 at EC80 concentration (100 nM); test compound 0.5 nM to 10 μM; read-out: LPAR1 (EC50; nM). On the procedure:
In vitro LPAR1 activity was measured in an intracellular calcium mobilization assay.
CHO-K1 EDG2 cells (DiscoverX cat #93-0644C2) expressing human LPAR1 (NM_001401.3) were seeded in a total volume of 25 μL of Dulbecco's Modification of Eagle's Medium (DMEM) with 10% Fetal Bovine Serum, 1× PenStrepGlutamine, 300 μg/ml Hygromycin, and 800 μg/ml G418 into 384-well tissue culture plate (Grenier #781091) at 15,000 cells/well and incubated at 37° C. overnight. Prior to testing, 25 μL Calcium Loading Dye Component A (FLIPR Calcium 6 Assay Kit Molecular Device #R8190) and 2.5 mM Probenecid (Invitrogen #P36400, prepared fresh) in Hank's Balanced Salt Solution (Corning #21-023-CV), 20 mM HEPES (Corning #25-060-CI), 0.1% Bovine Serum Albumin (Sigma-Aldrich #A7906-500G) was add to the cells for 60 minutes at 37° C.
Agonist dose curves of LPA 18:2 (Avanti Polar Lipids cat #857138, 0.5 nM to 10 μM) were recorded to determine the LPA 18:2 EC80 for subsequent antagonist assays. For agonist dose curves, cells were removed from the incubator 2 hours after dye loading and transferred to the FLIPR Tetra instrument (Molecular Devices, San Jose, CA). Calcium mobilization was monitored for […] and 10 μL 6× LPA in HBSS/20 mM Hepes/0.1% bovine serum albumin (BSA) was added to the cells 5 seconds into the assay.
To determine the LPAR1 antagonist activity of test compounds, cells were pre-incubated with test compound at a dose range of 0.5 nM to 10 μM, followed by LPA at EC80 concentration (100 nM). After dye loading, cells were removed from the incubator and 0.3 μL of 200X antagonist was added. Cells were incubated for 60 minutes at 37° C. Antagonist activity was measured on a FLIPR Tetra. Calcium mobilization was monitored for 3.5 minutes and 10 μL 6X EC80 LPA in HBSS, 20 mM HEPES, and 0.1% BSA was added to the cells 5 seconds into the assay. Signal amplitude (Maximum minus minimum) values were plotted against log10 of antagonist concentration using Dose Response Tool (Gilead Sciences Inc.) to determine EC50.
The compound numbers correspond to the compound numbers in Examples 1 to13.
In general terms: Calcium assays in cells follow changes in intracellular calcium, usually with a dye or a luminescent sensor.

T1 sequence (Q92633 whole entry): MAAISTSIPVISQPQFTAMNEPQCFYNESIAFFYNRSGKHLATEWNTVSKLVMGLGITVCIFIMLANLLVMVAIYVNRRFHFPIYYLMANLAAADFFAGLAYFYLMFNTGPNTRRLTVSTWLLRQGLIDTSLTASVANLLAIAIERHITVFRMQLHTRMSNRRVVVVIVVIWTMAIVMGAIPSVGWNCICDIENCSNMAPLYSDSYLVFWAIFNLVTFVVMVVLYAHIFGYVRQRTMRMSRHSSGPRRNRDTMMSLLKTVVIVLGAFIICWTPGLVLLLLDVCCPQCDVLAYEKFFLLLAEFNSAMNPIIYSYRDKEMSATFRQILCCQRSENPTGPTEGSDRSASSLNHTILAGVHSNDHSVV

On to `C[C@@H](OC(=O)Nc1c(-c2ccc(NC(=O)C(F)(F)F)cn2)nnn1C)c1cccc(F)c1` [Compound 1, (R)-1-(3-fluorophenyl)ethyl (1-methyl-4-(5-(2,2,2-trifluoroacetamido)pyridin-2-yl)-1H-1,2,3-triazol-5-yl)carbamate], for which the IC50 was 345 nM.
As for `CC(=O)Nc1ccc(-c2nnn(C)c2NC(=O)O[C@H](CF)c2cccc(F)c2)nc1C` [Compound 2, (S)-2-fluoro-1-(3-fluorophenyl)ethyl (4-(5-acetamido-6-methylpyridin-2-yl)-1-methyl-1H-1,2,3-triazol-5-yl)carbamate], the figure is 37000 nM; as for `C[C@@H](OC(=O)Nc1c(-c2ccc(NC(=O)C3(O)CC3)cn2)nnn1C)c1cccnc1Cl` [Compound 3, (R)-1-(2-chloropyridin-3-yl)ethyl (4-(5-(1-hydroxycyclopropane-1-carboxamido)pyridin-2-yl)-1-methyl-1H-1,2,3-triazol-5-yl)carbamate], 2770 nM; as for `COC1(C(=O)Nc2ccc(-c3nnn(C)c3NC(=O)O[C@H](C)c3cccnc3Cl)nc2)CC1` [Compound 4, (R)-1-(2-chloropyridin-3-yl)ethyl (4-(5-(1-methoxycyclopropane-1-carboxamido)pyridin-2-yl)-1-methyl-1H-1,2,3-triazol-5-yl)carbamate], 1260 nM.
Take `C[C@@H](OC(=O)Nc1c(-c2ccc(NC(=O)C3(C#N)CC3)c(Cl)n2)nnn1C)c1cc(F)cnc1F` [Compound 5, (R)-1-(2,5-difluoropyridin-3-yl)ethyl (4-(6-chloro-5-(1-cyanocyclopropane-1-carboxamido)pyridin-2-yl)-1-methyl-1H-1,2,3-triazol-5-yl)carbamate]: the IC50 worked out at 186 nM.
Regarding `C[C@@H](OC(=O)Nc1c(-c2ccc(NC(=O)c3ccc(C4CC4)nc3)cn2)nnn1C)c1cc(F)cnc1F` [Compound 6, (R)-1-(2,5-difluoropyridin-3-yl)ethyl (4-(5-(6-cyclopropylnicotinamido)pyridin-2-yl)-1-methyl-1H-1,2,3-triazol-5-yl)carbamate], the IC50 came out at 176 nM.
The value for `Cc1nc(-c2nnn(C)c2NC(=O)O[C@H](C)c2cc(F)cnc2F)ccc1NC(=O)c1cnc(C2CC2)o1` [Compound 7, (R)-1-(2,5-difluoropyridin-3-yl)ethyl (4-(5-(2-cyclopropyloxazole-5-carboxamido)-6-methylpyridin-2-yl)-1-methyl-1H-1,2,3-triazol-5-yl)carbamate] was 261 nM.
As for `C[C@@H](OC(=O)Nc1c(-c2ccc(NC(=O)c3cnc(-c4cccc(Cl)c4)nc3)cn2)nnn1C)c1cc(F)cnc1F` [Compound 8, (R)-1-(2,5-difluoropyridin-3-yl)ethyl (4-(5-(2-(3-chlorophenyl)pyrimidine-5-carboxamido)pyridin-2-yl)-1-methyl-1H-1,2,3-triazol-5-yl)carbamate], the figure is 22 nM; as for `Cc1nc(-c2nnn(C)c2NC(=O)O[C@H](C)c2cc(F)cnc2F)ccc1NC(=O)C1(CN)CC(F)(F)C1` [Compound 9, (R)-1-(2,5-difluoropyridin-3-yl)ethyl (4-(5-(1-(aminomethyl)-3,3-difluorocyclobutane-1-carboxamido)-6-methylpyridin-2-yl)-1-methyl-1H-1,2,3-triazol-5-yl)carbamate], 34 nM; as for `C[C@@H](OC(=O)Nc1c(-c2ccc(NC(=O)C34CC(c5ccccc5)(C3)C4)cn2)nnn1C)c1cc(F)cnc1F` [Compound 10, (R)-1-(2,5-difluoropyridin-3-yl)ethyl (1-methyl-4-(5-(3-phenylbicyclo[1.1.1]pentane-1-carboxamido)pvidin-2-yl)-1H-1,2,3-triazol-5-yl)carbamate], 13 nM.
In the case of `C[C@@H](OC(=O)Nc1c(-c2ccc(NC(=O)c3ccc(C45CC(C4)C5)cc3)cn2)nnn1C)c1cc(F)cnc1F` [Compound 11, (R)-1-(2,5-difluoropyridin-3-yl)ethyl (4-(5-(4-(bicyclo[1.1.1]pentan-1-yl)benzamido)pyridin-2-14)-1-methyl-1H-1,2,3-triazol-5-yl)carbamate], the IC50 came to 365 nM.
Consider `CC(=O)Nc1ccc(-c2nnn(C)c2NC(=O)O[C@H](C)c2cc(F)cnc2F)nc1` [Compound 12, (R)-1-(2,5-difluoropyridin-3-yl)ethyl (4-(5-acetamidopyridin-2-yl)-1-methyl-1H-1,2,3-triazol-5-yl)carbamate], for which the IC50 stood at 2050 nM.
For `C[C@@H](OC(=O)Nc1c(-c2ccc(NC(=O)C34CC(OS(C)(=O)=O)(C3)C4)cn2)nnn1C)c1cccnc1Cl` [Compound 13, (R)-3-((6-(5-(((1-(2-chloropyridin-3-yl)ethoxy)carbonyl)amino)-1-methyl-1H-1,2,3-triazol-4-yl)pyridin-3-yl)carbamoyl)bicyclo[1.1.1]pentan-1-yl methanesulfonate], the IC50 came to 152 nM.
